From patent US9096591B2, “Tetracyclic compounds” (Medivation Technologies, Inc., priority 2007, dated 2015)

Assays:
[1] = molecular target: T1, human recombinant histamine H1 receptor (Homo sapiens, UniProt P35367); assay: Histamine H1 radioligand binding ([3H]Pyrilamine); settings: read-out: Inhibition of ligand binding, Hist. H1
T1 construct: expressed in transfected cells; host or cells: CHO cells
Method in brief: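 Receptor expressed in CHO cells, assayed in 50 mM Tris-HCl pH 7.4 with 2 mM MgCl2, 100 mM NaCl, 250 mM sucrose. Compounds tested at 1 μM in 1% DMSO; non-specific binding set with 1 μM pyrilamine. Filter-bound radioactivity counted; values are percent inhibition of specific binding.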

[2] = molecular target: T2, human recombinant histamine H2 receptor (Homo sapiens, UniProt P25021); assay: Histamine H2 radioligand binding ([125I]Aminopotentidine); settings: read-out: Inhibition of ligand binding, Hist. H2
T2 construct: expressed in transfected cells; host or cells: CHO-K1 cells
T2 sequence (P25021 whole entry): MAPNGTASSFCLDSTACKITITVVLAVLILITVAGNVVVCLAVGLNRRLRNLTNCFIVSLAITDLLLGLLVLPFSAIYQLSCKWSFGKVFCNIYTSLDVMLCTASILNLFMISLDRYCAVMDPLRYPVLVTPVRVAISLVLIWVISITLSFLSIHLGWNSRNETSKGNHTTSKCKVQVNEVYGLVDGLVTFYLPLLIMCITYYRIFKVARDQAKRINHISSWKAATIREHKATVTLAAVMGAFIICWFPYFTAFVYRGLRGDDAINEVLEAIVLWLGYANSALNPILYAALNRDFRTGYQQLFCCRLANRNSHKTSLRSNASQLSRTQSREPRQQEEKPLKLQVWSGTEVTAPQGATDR
Method in brief: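 Test compounds were assessed for their ability to displace radioligand from the human recombinant histamine H2 receptor. Non-specific binding was determined in the presence of 3 μM Tiotidine, and results were expressed as percent inhibition of specific binding, with 1% DMSO serving as the vehicle.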

[3] = molecular target: T3, human recombinant adrenergic α2A receptor (Homo sapiens, UniProt P08913); assay: Adrenergic α2A radioligand binding ([3H]MK-912); set-up: Inhibition of ligand binding, Adren. alpha2A: concentration or dose not given beside the values; settings: percent inhibition of specific binding
T3 construct: expressed in transfected cells; host or cells: insect Sf9 cells
T3 sequence (P08913 1-465): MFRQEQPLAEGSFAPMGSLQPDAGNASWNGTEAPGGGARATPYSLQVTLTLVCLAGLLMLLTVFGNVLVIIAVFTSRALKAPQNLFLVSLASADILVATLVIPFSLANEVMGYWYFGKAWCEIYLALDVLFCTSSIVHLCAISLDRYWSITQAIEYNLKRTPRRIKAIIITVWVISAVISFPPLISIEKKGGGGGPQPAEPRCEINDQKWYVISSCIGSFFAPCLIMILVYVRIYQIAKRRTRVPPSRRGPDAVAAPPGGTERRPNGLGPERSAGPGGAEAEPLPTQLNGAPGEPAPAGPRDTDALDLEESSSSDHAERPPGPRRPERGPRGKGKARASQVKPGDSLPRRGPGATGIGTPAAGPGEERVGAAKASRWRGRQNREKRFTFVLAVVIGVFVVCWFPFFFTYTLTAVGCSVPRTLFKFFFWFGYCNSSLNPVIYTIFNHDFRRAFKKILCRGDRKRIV
Method in brief: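 Membranes from Sf9 cells expressing the receptor were incubated with 1 nM [3H]MK-912 for 60 minutes at 25° C in 50 mM Tris-HCl pH 7.4, 12.5 mM MgCl2, 2 mM EDTA. 10 μM WB-4101 defined non-specific binding. Values are percent inhibition of specific bound radioactivity after filtration.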

[4] = molecular target: T4, human recombinant dopamine D2L receptor (Homo sapiens, UniProt P14416); assay: Dopamine D2L radioligand binding ([3H]Spiperone); settings: percent inhibition of specific binding
T4 construct: expressed in transfected cells; host or cells: CHO cells
T4 sequence (P14416 whole entry): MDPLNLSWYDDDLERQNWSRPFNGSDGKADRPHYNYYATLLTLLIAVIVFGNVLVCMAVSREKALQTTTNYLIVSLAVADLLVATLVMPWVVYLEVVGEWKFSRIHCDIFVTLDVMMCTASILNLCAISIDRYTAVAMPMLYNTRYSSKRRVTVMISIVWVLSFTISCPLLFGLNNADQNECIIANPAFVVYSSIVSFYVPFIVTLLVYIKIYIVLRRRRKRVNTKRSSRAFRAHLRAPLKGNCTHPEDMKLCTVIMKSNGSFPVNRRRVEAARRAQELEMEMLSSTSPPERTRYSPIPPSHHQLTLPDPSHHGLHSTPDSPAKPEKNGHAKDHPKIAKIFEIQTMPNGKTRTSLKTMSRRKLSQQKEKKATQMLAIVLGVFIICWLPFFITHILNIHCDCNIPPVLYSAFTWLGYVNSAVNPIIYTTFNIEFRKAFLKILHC
Method: Non-specific binding was estimated in the presence of 10 μM Haloperidol. Receptor proteins were filtered and washed, the filters were then counted to determine [^3H]Spiperone specifically bound. […] Biochemical assay results are presented as the percent inhibition of specific binding in Table 6.

T1 sequence (P35367 whole entry): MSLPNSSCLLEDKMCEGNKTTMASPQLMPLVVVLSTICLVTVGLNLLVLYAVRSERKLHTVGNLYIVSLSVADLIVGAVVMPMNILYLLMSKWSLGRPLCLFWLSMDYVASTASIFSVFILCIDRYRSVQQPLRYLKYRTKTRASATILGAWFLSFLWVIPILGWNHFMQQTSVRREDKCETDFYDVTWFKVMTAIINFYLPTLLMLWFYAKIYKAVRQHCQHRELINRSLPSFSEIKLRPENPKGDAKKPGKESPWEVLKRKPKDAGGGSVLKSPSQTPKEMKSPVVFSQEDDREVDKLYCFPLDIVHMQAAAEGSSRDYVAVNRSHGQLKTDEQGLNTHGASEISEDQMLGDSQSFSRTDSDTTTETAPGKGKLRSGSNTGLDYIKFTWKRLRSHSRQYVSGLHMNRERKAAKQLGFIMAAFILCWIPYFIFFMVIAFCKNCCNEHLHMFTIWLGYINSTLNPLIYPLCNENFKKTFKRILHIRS

Row | Compound | inhibition at 1 µM [1] | inhibition at 1 µM [2] | Inhibition of ligand binding, Adren. alpha2A [3] | Inhibition of ligand binding, Dop. D2L [4]
1 | CN1CCc2c(c3cc(Cl)ccc3n2CCc2ccc(C(F)(F)F)nc2)C1 [Compound 250] | 102% | 54% | 91% | 21%
2 | Cc1ccc2c(c1)c1c(n2CCc2ccc(C)nc2)CCN(C)C1 [Dimebon, dimebon, reference compound] | 94% | 83% | 91% | 41%
